Measurements taken from article PMC8511024, “In silico and multi-spectroscopic analyses on the interaction of 5-amino-8-hydroxyquinoline and bovine serum albumin as a potential anticancer agent” (Scientific Reports, 2021).

Columns and labels:
[1] = molecular target: T1, bovine serum albumin (BSA) (Bos taurus, UniProt P02769); assay: Fluorescence quenching of BSA (Stern–Volmer, Hill and Van't Hoff analyses); assay type: binding; details: for Stern–Volmer constant Ksv: BSA 4 µM, 5A8HQ 0–170 µM; for Quenching rate constant kq: lifetime of 1 × 10^−8 s assumed
T1 construct: bovine serum albumin (BSA), a representative of serum protein; purchased Sigma-Aldrich Co. LLC
T1 sequence (P02769 25-607): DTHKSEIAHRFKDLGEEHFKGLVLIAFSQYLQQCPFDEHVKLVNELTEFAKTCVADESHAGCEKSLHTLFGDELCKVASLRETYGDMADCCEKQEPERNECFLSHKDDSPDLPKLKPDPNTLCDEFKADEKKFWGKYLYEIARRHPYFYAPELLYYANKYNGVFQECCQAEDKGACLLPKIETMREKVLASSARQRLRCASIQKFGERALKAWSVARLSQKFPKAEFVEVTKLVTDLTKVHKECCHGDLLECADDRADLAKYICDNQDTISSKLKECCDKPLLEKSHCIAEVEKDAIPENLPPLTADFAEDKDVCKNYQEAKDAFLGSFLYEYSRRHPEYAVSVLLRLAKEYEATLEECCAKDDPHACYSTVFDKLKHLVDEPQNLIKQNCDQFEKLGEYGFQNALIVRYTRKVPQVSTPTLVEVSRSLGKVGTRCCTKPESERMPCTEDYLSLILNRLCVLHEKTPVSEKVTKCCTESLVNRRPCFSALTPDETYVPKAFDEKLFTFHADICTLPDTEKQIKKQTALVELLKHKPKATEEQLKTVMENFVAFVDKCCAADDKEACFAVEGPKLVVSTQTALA
Excerpt: Quenching of intrinsic protein fluorescence can be triggered by either static or dynamic process. In some circumstances, both processes can concurrently provoke fluorescence quenching known as a combined quenching mechanism. Static and dynamic quenching processes obey a linear model of the Stern–Volmer equation (Eq. 1), which can be approximately differentiated by scrutinizing the Stern–Volmer constant ( Ksv ) at different temperatures. Positive relationship of Ksv with temperature indicates dynamic quenching process, while negative association infers static process. Dynamic quenching occurs via collisional encountering among protein and ligand. Increasing temperature enlarges ligand motion to hit protein and quench its fluorescence at the excited state, resulting in increasing Ksv . Static quenching is contrary to the dynamic one. It is arisen by the complexation of protein and ligand, in which rising temperature tends to disfavor binding event and lessen Ksv value. Combined quenching process influences both ground-state and excited state of protein fluorescence, which usually deviates the linearity of classical Stern–Volmer plot to downward or upward curvature[42].1 F0/F=1+KsvQ=1+kqτ0Q F0 and F are the steady-state fluorescence intensities of fluorophore (BSA) in the absence and the presence of quencher (5A8HQ), respectively. Q refers to the molar concentration of quencher. Ksv is Stern–Volmer constant. kq and τ0 are biomolecular quenching rate constant and fluorescence lifetime of the fluorophore without quencher, respectively.
Fluorescence quenching and thermodynamic analyses were performed at three different temperatures including 310, 300, and 290 K to imitate physiological, ambient, and hypothermic conditions, respectively. The 5A8HQ quenched fluorescence emission of BSA in a concentration dependent manner and almost reached saturation at 5A8HQ concentration above 130 µM (Fig. 3A). The Stern–Volmer plots behaved in a positive linear trend, indicating a single process of BSA fluorescence quenching by 5A8HQ (Fig. 3B).
In addition, quenching process could be roughly verified by determining the quenching rate constant of the interaction (Eq. (1)), in which the quenching rate constant at 2 × 10^10 M^−1 s^−1 is usually employed as a maximum cutoff for diffusion collision quenching of various quenchers. The fluorescence lifetime of excited state can be measured using a lifetime spectrofluorometer. However, in case of inaccessible to such instrument like this study, a lifetime of 1 × 10^−8 s is generally assumed for the calculation of quenching rate constant. Accordingly, the quenching rate constant of BSA‒5A8HQ interaction at each temperature was approximated to be 10^12 M^−1 s^−1 (Table 2), which was 100 times higher than that of the typical collisional quenching process (2 × 10^10 M^−1 s^−1). […] Thereby, the binding constants of complexation were elucidated using Hill’s plot.
Various non-covalent interactions play an important role in the binding of ligand to protein including hydrogen bonding, van der Waals force, electrostatic, and hydrophobic interactions. Therefore, complex formation between BSA and 5A8HQ was further explored to determine principal interaction forces and binding affinity. Nonlinear Hill’s equation (Eq. (2)) was applied on the fluorescence dataset of BSA–5A8HQ complex to obtain binding constant ( KA ) and Hill coefficient constant ( n ), which fundamentally infer affinity and cooperativity of the binding, respectively (Fig. 4A).
2 F0-F/F0=KA[Q]^n/1+KA[Q]^n F0 , F , and Q stand for the same annotations as the aforementioned in Eq. (1). Hill’s equation can be transformed to linear form as an expression of Eq. (3), which is often applied in many studies.3 logF0-F/F=logKA+nlogQ KA is similar to KSV in terms of binding constant, but in different aspects of interaction behavior. KA implies a degree of affinity at static process, while KSV rather reflects dynamic behavior among protein and ligand[16]. […]

[2] = molecular target: T1, bovine serum albumin (BSA); assay: Site probe competitive (site marker displacement) analysis; assay type: binding; details: 310 K; for Kd: Binding constant KA, BSA 4 µM
Excerpt: Serum albumin can bind and transport various molecules since its structure assembles many binding pockets. Site I and site II are well-defined binding pockets located in hydrophobic regions of subdomains IIA and IIIA, respectively, which primarily bind aromatic and heterocyclic compounds. Site III is found on the hydrophilic region of subdomain IB to serve as a binding pocket for numerous compounds e.g., bilirubin, hemin, and sulfonamide derivatives. In addition, seven binding sites for fatty acids are discovered on subdomains IB, IIIA, and IIIB, and at the interface between subdomains. Herein, site-probe displacement study was employed to determine the preferred binding site on BSA of 5A8HQ using warfarin, ibuprofen, and digitoxin as competitive probes for sites I, II, and III, respectively. Binding constant of 5A8HQ to BSA was determined during equilibration with each site marker (Table 4).
BSA (4 µM) was equilibrated with various concentrations of 5A8HQ (0, 5, 10, 30, 50, 70, 90, 110, 130, 150, and 170 µM) for 10 min at the different temperatures (290, 300, and 310 K). Later, fluorescence spectra in a range of 285–450 nm were measured with 280 nm excitation using a temperature-controlled QuantaMaster™ 40 spectrofluorometer (Photon Technology International, Inc., Ontario, Canada). Site marker displacement analyses were achieved as the abovementioned, but an equimolar concentration of […] was added to BSA prior challenging with various 5A8HQ concentrations at physiological temperature (310 K). Inner filter effect (IFE) becaused by the excitation and emission beam attenuations by sample might produce nonlinearity artifact on the measured fluorescent signal, so IFE was routinely eradicated by the following equation[55].9 Fcor=Fobs×e^(A^ex-A^em)/2 where Fobs and Fcor are the measured and corrected fluorescence intensities, respectively. A^ex and A^em are the absorbance values at excitation and emission wavelengths being measured. The IFE corrected fluorescence signals were served for estimations of all pertinent parameters, such as quenching constant, binding constant, and thermodynamics parameters, if not otherwise stated.

[3] = molecular target: T1, bovine serum albumin (BSA); assay: Fluorescence resonance energy transfer (FRET) between BSA and 5A8HQ; assay type: binding
Excerpt: Besides microenvironmental changes around its fluorophore, quenching of BSA fluorescence may also be provoked by fluorescence resonance energy transfer (FRET) process, in which the excited Trp and/or Tyr transfer their energy to the quencher (5A8HQ) via dipole–dipole interaction. However, the FRET phenomenon is strictly dependent on the degree of overlapping between emission spectrum of fluorophore and absorption spectrum of quencher. Also, fluorophore and quencher must be in proximity (2–8 nm) to each other and their transition dipoles must align in parallel orientation. FRET is a useful method to study molecular distance among molecules that can provide guidance on whether ligand binds with protein at proximity to the Trp fluorophore. The distance ( r ) between quencher and fluorophore can be calculated by Eq. (6).6 E=1-F/F0=R06/[…] E stands for the efficiency of fluorescence resonance energy transfer. F0 and F are fluorescence intensities of BSA in the absence and presence of 5A8HQ, respectively. R0 is the Förster distance, where half of the excitation energy is transferred to the acceptor. R0 can be obtained by Eqs. (7) and (8) as follows:7 R0=0.211k^2∅DJ/n^4^1/6 8 J=∫0∞Fλελλ^4dλ/∫0∞Fλdλ where k^2 is the orientation factor of the dipoles, which can range between 0 and 4. ∅D and n denote the fluorescence quantum yield of donor without quencher and the refractive index of the medium, respectively. J is an overlapping between the donor fluorescence spectrum and the quencher absorption spectrum. Fλ and ελ mean fluorescence intensity of the donor and molar absorption coefficient of the acceptor at the λ wavelength.
R0 was determined on the assumption that ∅D and n were 0.15 and 1.336, respectively. However, Förster distance depends greatly on orientation between donor’s and acceptor’s dipoles. k^2 value of 0.667 is generally assumed for dynamic dipole orientation, where dipoles are randomly oriented because of their rotational diffusion. […] Based on these two assumptions of dipole orientation, R0 were calculated to be 2.37 and 2.50 nm, which subsequently yielded the Trp to 5A8HQ distances ( r ) at 3.01 and 3.18 nm for static and dynamic dipole orientations, respectively.

[4] = molecular target: T1, bovine serum albumin (BSA); assay: Circular dichroism spectroscopy of BSA secondary structure; details: BSA 4 µM, 310 K, without 5A8HQ 66.17%
Excerpt: Structural alteration of the BSA when interacting with 5A8HQ was further elucidated by a CD spectroscopy, which is a useful technique for analyzing the secondary structure of macromolecules. BSA structure is dominantly composed of α-helix (~ 67%), represented by two prominent negative bands at 208 (π–π* transition) and 222 (n–π* transition) nm, and a positive band at 192 nm (π–π* transition)[54]. […] This finding is in well agreement with other observations, especially thermodynamic parameters, molecular docking, and molecular dynamics simulations, which implied that BSA tends to transform its native conformation for ground-state complexation with 5A8HQ. Hydrogen bonding and electrostatic networks of the complex might reallocate hydrogen bonding of α-helix structure as indicated by a slight decrease in CD spectral bands.
CD measurement was performed to determine a secondary conformational alteration of BSA under 5A8HQ exposure using a Jasco J-815 spectropolarimeter (JASCO International Co. Ltd., Tokyo, Japan). BSA (4 µM) was incubated with 5A8HQ (5 and 50 µM) in a 1 mm path length cuvette at 310 K under constantly flushed with nitrogen. The spectra were recorded in a range of 200–260 nm at an interval of 1 nm with a 60 nm/min scanning rate.

[5] = read-out: Antioxidant activity IC50; cited from earlier work
BSA = tested on: BSA; design: method as in PMID 30865872; details: cited from earlier work

Nc1ccc(O)c2ncccc12 [5A8HQ, 5-Amino-8-hydroxyquinoline]
Hill coefficient constant n ([1]; 290 K): 1 ± 0 | Stern–Volmer constant Ksv ([1]; 290 K): 2.773 ± 0.071 × 10^4 M^−1 | Quenching rate constant kq ([1]; 290 K): 2.773 ± 0.071 × 10^12 (M^−1 s^−1) | Hill coefficient constant n ([1]; 300 K): 1 ± 0 | Stern–Volmer constant Ksv ([1]; 300 K): 1.303 ± 0.043 × 10^4 M^−1 | Quenching rate constant kq ([1]; 300 K): 1.303 ± 0.043 × 10^12 (M^−1 s^−1) | Hill coefficient constant n ([1]; 310 K): 1 ± 0 | Stern–Volmer constant Ksv ([1]; 310 K): 1.173 ± 0.032 × 10^4 M^−1 | Quenching rate constant kq ([1]; 310 K): 1.173 ± 0.032 × 10^12 (M^−1 s^−1) | Kd ([1]; Binding constant KA, 290 K, Hill's equation): 40 µM | Kd ([1]; Binding constant KA, 300 K, Hill's equation): 58.6 µM | Kd ([1]; Binding constant KA, 310 K, Hill's equation): 83.7 µM | Kd ([1]; Binding constant of BSA‒5A8HQ interaction (order of magnitude), 290–310 K): 100 µM | Quenching rate constant (order of magnitude) ([1]; at each temperature, lifetime 1 × 10^−8 s assumed): ~10^12 M^−1 s^−1 | Kd ([2]; with digitoxin (site III marker) 4 µM): 47.6 µM | Kd ([2]; with ibuprofen (site II marker) 4 µM): 47.8 µM | Kd ([2]; with warfarin (site I marker) 4 µM): 47.1 µM | Kd ([2]; without site marker): 83.7 µM | Number of binding site n ([2]; with digitoxin 4 µM): 1 ± 0 | Number of binding site n ([2]; with ibuprofen 4 µM): 1 ± 0 | Number of binding site n ([2]; with warfarin 4 µM): 1 ± 0 | Number of binding site n ([2]; without site marker): 1 ± 0 | Integral spectral overlap J ([3]; BSA 4 µM fluorescence, 5A8HQ 5 µM absorption): 9.55 × 10^13 M^−1 cm^−1 nm^4 | Trp to 5A8HQ distance r ([3]; dynamic dipole orientation): 3.18 nm | Förster distance R0 ([3]; dynamic dipole orientation, k^2 0.667): 2.50 nm | Trp to 5A8HQ distance r ([3]; static dipole orientation): 3.01 nm | Förster distance R0 ([3]; static dipole orientation, k^2 0.475): 2.37 nm | α-helix content of BSA ([4]; 5A8HQ 5 µM): 64.96% | α-helix content of BSA ([4]; 5A8HQ 50 µM): 63.65% | IC50 [5]: 8.71 µM

Oc1c(I)cc(Cl)c2cccnc12 [clioquinol, 5-chloro-7-iodo-8-hydroxyquinoline]
Binding constant KA (BSA): 10^8 M^−1

Cc1c(C)c2c(c(C)c1O)CC[C@@](C)(CCC[C@H](C)CCC[C@H](C)CCCC(C)C)O2 [α-tocopherol, reference compound]
IC50 [5]: 13.5 µM
